Measurements published in patent publication US20140205537A1, “LRRK2 INHIBITORS” (ZENOBIA THERAPEUTICS, INC., priority 2011, published 2014).

What was measured:
[1] = molecular target: JNK1 (Homo sapiens, UniProt P45983); experiment: Kinase selectivity panel: JNK1; format: biochemical
[2] = molecular target: PIM1 (Homo sapiens, UniProt P11309); experiment: Kinase selectivity panel: PIM1; format: biochemical
[3] = molecular target: BTK (Homo sapiens, UniProt Q06187); experiment: Kinase selectivity panel: BTK; format: biochemical
[4] = molecular target: cMet (Homo sapiens, UniProt P08581); experiment: Kinase selectivity panel: cMet; format: biochemical
[5] = molecular target: CK2 alpha 1 (Homo sapiens, UniProt P68400); experiment: Kinase selectivity panel: CK2 alpha 1; format: biochemical
[6] = molecular target: SYK (Homo sapiens, UniProt P43405); experiment: Kinase selectivity panel: SYK; format: biochemical
[7] = molecular target: JAK3 (Homo sapiens, UniProt P52333); experiment: Kinase selectivity panel: JAK3; format: biochemical
[8] = molecular target: IKKbeta (Homo sapiens, UniProt O14920); experiment: Kinase selectivity panel: IKKbeta; format: biochemical
[9] = molecular target: CAMK2D (Homo sapiens, UniProt Q13557); experiment: Kinase selectivity panel: CAMK2D; format: biochemical
[10] = molecular target: DCK2 (Homo sapiens, UniProt Q8N568); experiment: Kinase selectivity panel: DCK2; format: biochemical
[11] = molecular target: T1, CHEK1 (Homo sapiens, UniProt O14757); experiment: Kinase selectivity panel: CHEK1; format: biochemical
T1 sequence (O14757 1-476): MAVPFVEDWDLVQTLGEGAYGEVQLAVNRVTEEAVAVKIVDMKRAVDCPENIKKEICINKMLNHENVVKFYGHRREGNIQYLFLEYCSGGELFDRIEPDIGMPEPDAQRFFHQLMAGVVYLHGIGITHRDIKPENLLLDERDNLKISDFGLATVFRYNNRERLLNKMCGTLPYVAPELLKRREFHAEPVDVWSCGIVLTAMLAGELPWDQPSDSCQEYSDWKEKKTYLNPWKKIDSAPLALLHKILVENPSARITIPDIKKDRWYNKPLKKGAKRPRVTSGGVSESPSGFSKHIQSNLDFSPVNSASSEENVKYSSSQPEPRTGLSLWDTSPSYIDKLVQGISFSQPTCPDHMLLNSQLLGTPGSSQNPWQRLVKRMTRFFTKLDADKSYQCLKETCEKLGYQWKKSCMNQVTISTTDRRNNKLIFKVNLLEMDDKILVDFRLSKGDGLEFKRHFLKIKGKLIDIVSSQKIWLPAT

[12] = molecular target: FLT3 (Homo sapiens, UniProt P36888); experiment: Kinase selectivity panel: FLT3; format: biochemical
[13] = molecular target: GSK3beta (Homo sapiens, UniProt P49841); experiment: Kinase selectivity panel: GSK3beta; format: biochemical
[14] = molecular target: PDGFRbeta (Homo sapiens, UniProt P09619); experiment: Kinase selectivity panel: PDGFRbeta; format: biochemical
[15] = molecular target: G2019S LRRK2 (Homo sapiens, UniProt Q5S007, G2019S); experiment: G2019S LRRK2 inhibition (Invitrogen SelectScreen / TR-FRET biochemical assay); set-up: The protein construct used in the assay is GST tagged 969-2527; GST; purchased Invitrogen; conditions: numeric value
Procedure: IC50s were determined using Invitrogen's SelectScreen® Profiling Service for wild type and LRRK2 G2019S. The test compounds were screened in 1% DMSO (final) in the well.
a) % inhibition is measured at one concentration
b) a 10-point titration is run to ensure the kinase is inhibited within an expected IC50 range
Biochemical Assay Protocol:
Compound potency against wild-type and G2019S LRRK2 is measured via TR-FRET. The IC50, the amount of inhibitor required to inhibitor 50% of the protein under the given assay conditions, is determined by varying the amount of compound (500-0.001 uM) by serial dilution with 12-data points per compound, in duplicate. The substrate (Fluorescein-GAGRLGRDKYKTLRQIRQ) and ATP is fixed at 0.8 uM and 57 uM (KmATP), respectively. All assays are run in Corning low volume […] round bottomed plates. The assay is run in 50 mM Tris-HCl pH8.5, 10 mM MgCl2, 0.01% Brij-35, 1 mM EGTA, 2 mMDTT. The TR-FRET assay is an end-point assay where the reaction with protein, substrate, inhibitor and ATP is incubated for 1 hour at room temperature. The compound is pre-incubated with the protein and substrate prior to initiating the reaction with ATP. Phospho-transfer is detected using a Terbium labeled anti-pLRRKtide that binds to phosphorylated substrate creating FRET transfer when excited at 340 nm. Emissions signals are taken for terbium and FRET induced fluorescein at 495 nm and 520 nm, respectively, using a Biotek Synergy 2 spectrophotometer. The dose response is determined by plotting the emission ratio of 520/495 against the log of the inhibitor concentration. The maximum inhibition and non-inhibition controls is run on all plates. Staurosporine is used as the positive inhibition control and DMSO is used as the negative point control. A 12-point dose curve of Staurosporine is run as a dosing control. The IC50 is determined to be the inhibitor concentration at which 50% inhibition is achieved. The protein construct used in the assay is GST tagged 969-2527. The protein is commercially available from Invitrogen.
Alternatively, compounds of formulas (II), (I), (I-A), (I-B), (I-C), (I-D), (I-D-1), (I-D-2), (I-E), (I-F), (I-G), (I-H), (I-I), (I-I-1), (I-I-2), (I-J), (I-K), (I-L), (I-M), (I-N), (I-Z-1), (I-Z-2), (I-Z-2-a), (I-Z-2-b), (I-Z-2-c), (I-Z-2-d), (I-Z-3-a), (I-Z-3-b), (I-Z-3-c), or (I-Z-3-d) were tested using Invitrogen's SelectScreen® Profiling Service for LRRK2 G2019S.

[16] = molecular target: CDK5/p35 (Homo sapiens, UniProt Q00535); experiment: Kinase selectivity panel: CDK5/p35; format: biochemical
[17] = molecular target: ERK2 (Homo sapiens, UniProt P28482); experiment: Kinase selectivity panel: ERK2; format: biochemical
[18] = molecular target: BRAF (Homo sapiens, UniProt P15056); experiment: Kinase selectivity panel: BRAF; format: biochemical
[19] = molecular target: NEK1 (Homo sapiens, UniProt Q96PY6); experiment: Kinase selectivity panel: NEK1; format: biochemical

Chain of CDK5/p35 (Q00535 whole entry, species assumed): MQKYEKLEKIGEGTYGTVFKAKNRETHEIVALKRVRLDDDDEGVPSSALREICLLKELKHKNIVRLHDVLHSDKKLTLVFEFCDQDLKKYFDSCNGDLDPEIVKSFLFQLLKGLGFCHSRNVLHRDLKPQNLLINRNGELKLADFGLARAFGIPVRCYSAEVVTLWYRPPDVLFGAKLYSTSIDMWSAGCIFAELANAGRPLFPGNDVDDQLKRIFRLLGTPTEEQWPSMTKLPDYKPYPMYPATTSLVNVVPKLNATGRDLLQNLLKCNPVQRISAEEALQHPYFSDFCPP
Chain of CDK5/p35 (Q15078 whole entry partner, species assumed): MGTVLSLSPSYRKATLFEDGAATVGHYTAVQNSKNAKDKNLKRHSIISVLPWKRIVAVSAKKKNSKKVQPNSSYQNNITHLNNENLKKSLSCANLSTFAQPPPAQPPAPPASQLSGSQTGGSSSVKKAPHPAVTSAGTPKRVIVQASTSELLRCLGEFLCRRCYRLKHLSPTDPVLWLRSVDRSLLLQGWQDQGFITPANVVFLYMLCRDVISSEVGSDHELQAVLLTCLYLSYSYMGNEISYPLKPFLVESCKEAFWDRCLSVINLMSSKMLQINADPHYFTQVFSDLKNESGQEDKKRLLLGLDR
Chain of CAMK2D (Q13557 whole entry, species assumed): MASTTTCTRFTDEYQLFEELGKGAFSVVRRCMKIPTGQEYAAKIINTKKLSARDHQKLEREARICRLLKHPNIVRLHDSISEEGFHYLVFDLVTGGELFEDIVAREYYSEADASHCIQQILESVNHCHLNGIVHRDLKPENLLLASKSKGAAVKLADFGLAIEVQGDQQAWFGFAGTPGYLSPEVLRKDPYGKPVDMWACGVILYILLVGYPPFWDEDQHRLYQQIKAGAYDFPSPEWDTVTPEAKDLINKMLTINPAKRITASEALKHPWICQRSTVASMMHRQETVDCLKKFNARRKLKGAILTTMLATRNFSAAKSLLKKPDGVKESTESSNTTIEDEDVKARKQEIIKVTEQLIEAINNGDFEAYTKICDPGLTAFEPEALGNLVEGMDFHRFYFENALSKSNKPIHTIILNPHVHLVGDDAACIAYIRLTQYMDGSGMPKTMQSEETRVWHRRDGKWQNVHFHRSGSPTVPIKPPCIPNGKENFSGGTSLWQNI
Chain of IKKbeta (O14920 whole entry, species assumed): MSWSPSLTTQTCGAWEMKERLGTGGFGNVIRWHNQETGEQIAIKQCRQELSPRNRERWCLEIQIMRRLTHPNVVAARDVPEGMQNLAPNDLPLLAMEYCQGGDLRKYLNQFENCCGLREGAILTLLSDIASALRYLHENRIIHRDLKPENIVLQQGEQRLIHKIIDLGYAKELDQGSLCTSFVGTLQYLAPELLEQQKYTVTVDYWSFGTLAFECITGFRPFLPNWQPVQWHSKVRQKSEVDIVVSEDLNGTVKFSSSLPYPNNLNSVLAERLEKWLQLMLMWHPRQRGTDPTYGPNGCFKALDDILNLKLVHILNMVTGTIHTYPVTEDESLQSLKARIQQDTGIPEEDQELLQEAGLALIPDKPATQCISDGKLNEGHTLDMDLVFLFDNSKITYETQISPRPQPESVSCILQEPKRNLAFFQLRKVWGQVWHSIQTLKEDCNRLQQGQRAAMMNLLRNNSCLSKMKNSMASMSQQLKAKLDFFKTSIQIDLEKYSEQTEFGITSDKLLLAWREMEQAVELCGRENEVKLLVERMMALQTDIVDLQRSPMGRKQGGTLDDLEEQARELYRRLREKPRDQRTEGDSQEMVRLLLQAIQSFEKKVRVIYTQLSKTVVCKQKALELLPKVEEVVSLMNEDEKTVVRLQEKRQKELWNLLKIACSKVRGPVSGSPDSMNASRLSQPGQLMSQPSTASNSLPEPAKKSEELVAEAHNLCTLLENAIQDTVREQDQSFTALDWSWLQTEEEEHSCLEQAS
Chain of JNK1 (P45983 whole entry, species assumed): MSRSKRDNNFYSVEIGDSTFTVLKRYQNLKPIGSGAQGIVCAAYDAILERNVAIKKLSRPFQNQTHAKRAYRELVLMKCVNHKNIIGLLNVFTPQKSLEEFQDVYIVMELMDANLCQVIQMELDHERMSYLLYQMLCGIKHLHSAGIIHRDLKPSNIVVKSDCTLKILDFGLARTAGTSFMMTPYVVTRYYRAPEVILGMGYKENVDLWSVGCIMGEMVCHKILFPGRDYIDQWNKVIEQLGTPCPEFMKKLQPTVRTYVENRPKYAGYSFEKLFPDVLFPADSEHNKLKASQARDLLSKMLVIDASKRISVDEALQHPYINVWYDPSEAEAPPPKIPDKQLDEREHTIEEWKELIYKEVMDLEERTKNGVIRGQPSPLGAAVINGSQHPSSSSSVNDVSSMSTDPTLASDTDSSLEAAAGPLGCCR
Chain of FLT3 (P36888 27-993, species assumed): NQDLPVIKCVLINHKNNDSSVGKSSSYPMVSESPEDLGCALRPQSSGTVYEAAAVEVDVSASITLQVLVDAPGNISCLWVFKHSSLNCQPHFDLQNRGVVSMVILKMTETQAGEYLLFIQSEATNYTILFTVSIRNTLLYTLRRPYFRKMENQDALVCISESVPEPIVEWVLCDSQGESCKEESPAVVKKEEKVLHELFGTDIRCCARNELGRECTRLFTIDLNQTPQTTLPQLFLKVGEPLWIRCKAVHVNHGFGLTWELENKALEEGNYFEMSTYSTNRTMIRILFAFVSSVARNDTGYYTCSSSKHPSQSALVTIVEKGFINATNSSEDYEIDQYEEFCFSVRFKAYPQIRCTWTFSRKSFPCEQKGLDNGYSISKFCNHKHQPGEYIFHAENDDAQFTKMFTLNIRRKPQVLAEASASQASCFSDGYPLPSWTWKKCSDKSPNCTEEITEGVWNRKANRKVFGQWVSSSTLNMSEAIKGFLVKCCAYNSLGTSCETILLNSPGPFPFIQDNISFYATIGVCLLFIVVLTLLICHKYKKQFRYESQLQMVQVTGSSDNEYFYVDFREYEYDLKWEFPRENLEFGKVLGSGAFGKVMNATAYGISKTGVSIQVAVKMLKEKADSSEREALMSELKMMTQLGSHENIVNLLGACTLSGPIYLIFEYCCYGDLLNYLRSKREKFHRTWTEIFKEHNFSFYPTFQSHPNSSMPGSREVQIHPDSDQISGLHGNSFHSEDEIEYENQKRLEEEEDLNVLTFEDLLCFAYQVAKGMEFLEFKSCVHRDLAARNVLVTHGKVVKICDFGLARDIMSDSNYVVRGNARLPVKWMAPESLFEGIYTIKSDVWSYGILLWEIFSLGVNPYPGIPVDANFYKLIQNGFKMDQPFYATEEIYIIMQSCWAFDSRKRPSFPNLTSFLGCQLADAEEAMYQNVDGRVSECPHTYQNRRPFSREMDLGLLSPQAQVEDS
Chain of cMet (P08581 25-1390): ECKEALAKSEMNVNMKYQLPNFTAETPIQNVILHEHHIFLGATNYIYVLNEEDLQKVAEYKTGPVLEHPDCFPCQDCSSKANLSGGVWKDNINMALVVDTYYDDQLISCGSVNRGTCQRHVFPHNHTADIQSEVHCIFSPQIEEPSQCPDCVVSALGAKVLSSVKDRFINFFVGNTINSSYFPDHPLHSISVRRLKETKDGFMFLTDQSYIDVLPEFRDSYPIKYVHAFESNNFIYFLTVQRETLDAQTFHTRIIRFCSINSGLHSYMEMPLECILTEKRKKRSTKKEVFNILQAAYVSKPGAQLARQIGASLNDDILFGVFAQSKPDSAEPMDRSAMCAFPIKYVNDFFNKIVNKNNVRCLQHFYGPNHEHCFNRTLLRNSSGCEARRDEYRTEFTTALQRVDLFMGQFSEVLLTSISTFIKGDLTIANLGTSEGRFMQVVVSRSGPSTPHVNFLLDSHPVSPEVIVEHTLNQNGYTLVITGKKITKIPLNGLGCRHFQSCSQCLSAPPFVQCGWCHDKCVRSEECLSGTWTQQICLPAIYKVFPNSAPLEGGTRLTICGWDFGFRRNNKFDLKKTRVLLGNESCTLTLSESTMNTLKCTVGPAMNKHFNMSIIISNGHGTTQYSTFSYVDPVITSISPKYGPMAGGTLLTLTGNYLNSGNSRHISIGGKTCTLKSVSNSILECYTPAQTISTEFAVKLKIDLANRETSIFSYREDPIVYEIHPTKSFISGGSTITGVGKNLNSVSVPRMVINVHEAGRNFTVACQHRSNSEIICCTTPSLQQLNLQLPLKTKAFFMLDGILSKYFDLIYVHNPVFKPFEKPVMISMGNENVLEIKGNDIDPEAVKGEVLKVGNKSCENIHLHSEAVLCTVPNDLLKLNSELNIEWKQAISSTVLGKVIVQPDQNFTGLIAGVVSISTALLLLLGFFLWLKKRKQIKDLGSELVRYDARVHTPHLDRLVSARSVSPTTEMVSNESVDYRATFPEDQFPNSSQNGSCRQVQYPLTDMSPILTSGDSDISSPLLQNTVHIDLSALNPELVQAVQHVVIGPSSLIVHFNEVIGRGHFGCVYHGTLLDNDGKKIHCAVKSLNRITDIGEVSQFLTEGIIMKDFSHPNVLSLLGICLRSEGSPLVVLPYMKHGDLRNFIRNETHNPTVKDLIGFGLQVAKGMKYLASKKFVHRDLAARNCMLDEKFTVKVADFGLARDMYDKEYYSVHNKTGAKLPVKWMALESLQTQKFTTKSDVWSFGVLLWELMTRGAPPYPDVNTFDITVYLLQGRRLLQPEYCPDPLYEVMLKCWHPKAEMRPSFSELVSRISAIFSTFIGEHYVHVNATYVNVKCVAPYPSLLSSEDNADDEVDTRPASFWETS
Chain of ERK2 (P28482 whole entry, species assumed): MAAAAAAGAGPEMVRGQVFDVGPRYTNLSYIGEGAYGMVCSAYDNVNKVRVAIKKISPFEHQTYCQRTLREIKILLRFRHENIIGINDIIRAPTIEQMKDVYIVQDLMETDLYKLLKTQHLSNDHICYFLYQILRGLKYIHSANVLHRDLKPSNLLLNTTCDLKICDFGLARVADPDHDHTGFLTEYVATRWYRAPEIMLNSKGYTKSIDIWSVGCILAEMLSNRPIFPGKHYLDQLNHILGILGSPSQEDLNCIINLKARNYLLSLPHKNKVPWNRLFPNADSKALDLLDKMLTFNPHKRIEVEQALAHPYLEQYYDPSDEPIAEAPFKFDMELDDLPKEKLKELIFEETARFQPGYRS

inhibition at 0.1 µM [1]: -5% | inhibition at 0.1 µM [2]: -2% | inhibition at 0.1 µM [3]: 4% | inhibition at 0.1 µM [4]: 7% | inhibition at 0.1 µM [5]: 6% | inhibition at 0.1 µM [6]: 8% | inhibition at 0.1 µM [7]: 2% | inhibition at 0.1 µM [8]: 7% | IC50 [9]: 276 nM | inhibition at 0.1 µM ([9]; @0.1 uM): 41% | inhibition at 0.1 µM [10]: 8% | IC50 [11]: > 10000 nM | inhibition at 0.1 µM ([11]; @0.1 uM): 3% | inhibition at 0.1 µM [12]: 8% | inhibition at 0.1 µM [13]: 0% | inhibition at 0.1 µM [14]: 4% | IC50 [15]: 5.5 nM | IC50 [16]: > 10000 nM | inhibition at 0.1 µM ([16]; @0.1 uM): 1% | inhibition at 0.1 µM [17]: 8% | inhibition at 0.1 µM [18]: 18% | inhibition at 0.1 µM [19]: 10%
SMILES: COc1ccc2c(c1)/C(=C/c1cnc(C3CCOCC3)[nH]1)C(=O)N2 [Compound 18, (3Z)-5-methoxy-3-[(2-tetrahydropyran-4-yl-1H-imidazol-5-yl)methylene]indolin-2-one]
